Assay results as given in patent publication US20230293469A1, “NOVEL PHARMACEUTICAL COMPOSITIONS” (NEUROPRO THERAPEUTICS, INC., priority 2020, published 2023).
Like-named read-outs stand apart in the source and are kept apart here.

Assay: Oral dose PK of NPT2042 in dog (AUC for absolute bioavailability)
Assay type: in vivo
Description: Assays were performed to determine absolute bioavailability of NPT2042 in two species: dog and rat. The calculation of absolute bioavailability depends on four inputs: the areas under the curves (AUC) for oral and IV, and the oral and IV doses.
Testing was conducted to determine AUCs for an oral dose in dog.
Two dogs were each dosed 30 mg/kg NPT2042 orally, on two different days.

[1] = NPT2042, dog, oral 30 mg/kg, animals D0001, D0601, Mean, 30 mg/kg
[2] = NPT2042, dog, oral 30 mg/kg, animals D0001, D0601, Mean, 30 mg/kg, mean
[3] = dog, in vivo, po, 30 mg/kg, NPT2042, dog, oral 30 mg/kg, animals D0001, D0601, Mean

CCCCNc1cc(C(=O)N(Cc2ccccc2)Cc2ccccc2)cc(S(N)(=O)=O)c1Oc1ccccc1 [NPT-2042, N,N-Dibenzyl 3-Aminosulfonyl-5-butylamino-4-phenoxybenzamide]
AUCinf [1]: 1520 ng·h/mL
AUClast [1]: 1450 ng·h/mL
CL/F [1]: 328 mL/min/kg
Cmax [1]: 153 ng/mL
t½ [1]: 4.72 h
AUCinf [2]: 1440 ng·h/mL
AUClast [2]: 1390 ng·h/mL
CL/F [2]: 347 mL/min/kg
Cmax [2]: 152 ng/mL
t½ [2]: 4.16 h
AUC(0-inf) [3]: 1360 ng·h/mL
AUC(0-t) [3]: 1340 ng·h/mL
CL/F (dog, in vivo, po, 30 mg/kg, NPT2042, dog, oral 30 mg/kg, animals D0001, D0601, Mean, read-out: CL/F (converted)): 367 mL/min/kg
Cmax (dog, in vivo, po, 30 mg/kg, NPT2042, dog, oral 30 mg/kg, animals D0001, D0601, Mean, read-out: Cmax): 151 ng/mL
Vd/F (dog, in vivo, po, 30 mg/kg, NPT2042, dog, oral 30 mg/kg, animals D0001, D0601, Mean, read-out: Vz/F): 115 L/kg
half-life (dog, in vivo, po, 30 mg/kg, NPT2042, dog, oral 30 mg/kg, animals D0001, D0601, Mean, read-out: t½ (converted)): 3.61 h
Absolute bioavailability (AUCpo/AUCiv)*(Doseiv/Dosepo) (dog, oral 30 mg/kg vs IV 10 mg/kg, as fraction): 0.0509
Tmax (in vivo, NPT2042, dog, oral 30 mg/kg, animals D0001, D0601, Mean): 6 h
bioavailability (in vivo, dog, oral 30 mg/kg vs IV 10 mg/kg): 5.1%
